The assay has as its target T1, human FSH receptor (Homo sapiens, UniProt P23945).
T1 construct: expressed in transfected cells; host or cells: CHO cells (hFSHR clone 16)
T1 sequence (P23945 18-695): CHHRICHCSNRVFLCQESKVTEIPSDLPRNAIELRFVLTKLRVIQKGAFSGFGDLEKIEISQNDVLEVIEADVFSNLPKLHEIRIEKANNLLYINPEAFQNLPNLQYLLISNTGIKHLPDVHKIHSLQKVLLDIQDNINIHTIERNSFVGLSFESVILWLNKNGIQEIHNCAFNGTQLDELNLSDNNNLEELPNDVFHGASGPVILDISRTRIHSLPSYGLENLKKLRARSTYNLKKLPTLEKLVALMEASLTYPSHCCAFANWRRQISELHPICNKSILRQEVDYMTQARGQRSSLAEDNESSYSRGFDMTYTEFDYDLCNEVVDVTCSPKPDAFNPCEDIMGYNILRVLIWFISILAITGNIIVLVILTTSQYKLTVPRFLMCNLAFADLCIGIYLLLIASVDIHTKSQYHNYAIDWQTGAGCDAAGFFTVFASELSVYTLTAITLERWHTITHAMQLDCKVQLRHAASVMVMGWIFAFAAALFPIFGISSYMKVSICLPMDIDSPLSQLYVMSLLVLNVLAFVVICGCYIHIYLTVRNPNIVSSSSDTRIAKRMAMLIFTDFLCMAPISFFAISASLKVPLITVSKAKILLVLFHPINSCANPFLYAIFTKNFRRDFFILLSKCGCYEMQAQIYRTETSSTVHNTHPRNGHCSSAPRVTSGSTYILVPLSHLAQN
The assay can be described thus: HTRF assay for measuring cAMP in cells (FSH antagonism). In kind it is cell-based. As to conditions: FSH antagonistic effect in the HTRF assay; hFSHR clone 16 cells (CHO cells stably transfected with the human FSH receptor); in the presence of 1e-9 mol/l hFSH. On the procedure:
HTRF Assay for Measuring cAMP in Cells
The method is based on a competitive immunoassay between native cAMP, which has been produced by the cells, and cAMP which is labelled with cAMPD2 conjugate. The tracer binding was visualized by a monoclonal antibody, anti-cAMP labelled with cryptate [HTRF=homogeneous time-resolved fluorescence].
The specific signal is inversely proportional to the cAMP concentration of the samples employed.
The 665 nm/620 nm fluorescence ratio was evaluated.
The following material was used: 96-well plates for the tissue culture, 96-well plates with black edge and black base (e.g. Fluotrac 600 from Greiner), 96-well plates for the substance dilutions of polypropylene and cAMP Femtomolar (4000 wells Kit, CIS Bio International # 62AM5PEJ).
The following reagents were used: BSA (bovine serum albumin) Fraction V protease-free, IBMX (3-isobutyl-1-methylxanthine), hFSH (human follicle stimulating hormone), Triton X-100 analytical grade, potassium fluoride analytical grade, G 418 (Geneticin) and Accutase.
Buffer 1 (washing and testing buffer) contained PBS, 1 mM CaCl2, 1 mM MgCl2, 0.2% glucose; 0.1% BSA, 1 mM IBMX. […]
The values of the well ratio were averaged and then entered directly in SigmaPlot versus the concentrations. The maximum and minimum values were determined for each plate, and half the difference is to be regarded as IC50.
(TR-FRET usually uses a lanthanide donor and a delayed reading to cut background.)

pIC50: −log10 of the molar value.

As to `N#CCc1ccc(-c2cc3c(c(S(=O)(=O)N[C@@H](CO)Cc4c[nH]c5ccccc45)c2)OCC3)cc1` [Example 52, 5-(4-Cyanomethyl-phenyl)-2,3-dihydro-benzofuran-7-sulfonic acid [(R)-2-hydroxy-1-(1H-indol-3-ylmethyl)-ethyl]-amide], the negative-log IC50 (pIC50) was 5.00.
As for `O=S(=O)(N[C@@H](CO)Cc1c[nH]c2ccccc12)c1cc(-c2ccc3ncccc3c2)cc2c1OCC2` [Example 39, 5-Quinolin-6-yl-2,3-dihydro-benzofuran-7-sulfonic acid [(R)-2-hydroxy-1-(1H-indol-3-ylmethyl)-ethyl]-amide], the pIC50 was 5.30.

For orientation: pIC50 means the IC50 on a negative log10 scale, so that one unit is a factor of ten.
